Test results from PubChem BioAssay (NCI).
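Interpolation was linear, between the two tested concentrations surrounding the appropriate level; five concentrations were tested over 48 hours in 96-well plates. GI50 marks 50% less growth. TGI denotes the concentration required for complete inhibition of growth.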

Key:
Experiment in all cases: NCI-60 cell line screen, 48 h
MOLT-4 leukemia = system: MOLT-4 leukemia
HL-60(TB) leukemia = system: HL-60(TB) leukemia
SK-MEL-28 melanoma = system: SK-MEL-28 melanoma
M14 melanoma = system: M14 melanoma
NCI-H226 lung = system: NCI-H226 lung
HCC-2998 colon = system: HCC-2998 colon
OVCAR-8 ovarian = system: OVCAR-8 ovarian
SR leukemia = system: SR leukemia
NCI-H522 lung = system: NCI-H522 lung
MCF7 breast = system: MCF7 breast

SMILES	TGI (MOLT-4 leukemia)	TGI (HL-60(TB) leukemia)	TGI (SK-MEL-28 melanoma)	TGI (M14 melanoma)	TGI (NCI-H226 lung)	TGI (HCC-2998 colon)	TGI (OVCAR-8 ovarian)	TGI (SR leukemia)	TGI (NCI-H522 lung)	GI50 (MOLT-4 leukemia)	GI50 (HL-60(TB) leukemia)	GI50 (SK-MEL-28 melanoma)	GI50 (M14 melanoma)	GI50 (NCI-H226 lung)	GI50 (HCC-2998 colon)	GI50 (OVCAR-8 ovarian)	GI50 (MCF7 breast)	TGI (MCF7 breast)	GI50 (NCI-H522 lung)	GI50 (SR leukemia)
C[C@]12CCC(=O)C=C1CC[C@@H]1C2CC[C@]2(C)Nc3[nH]ncc3CC12 (stereo not given in full)	> 100 µM	> 100 µM	> 100 µM	> 100 µM	> 100 µM	> 100 µM	> 100 µM													
CCN(CC)CCSc1c2ccccc2nc2c(OC)ccc(OC)c12	3.84 µM	17.7 µM	8.91 µM	15.4 µM	50.7 µM	> 36 µM	12 µM	10.7 µM	19.8 µM											
COc1ccc(-c2nsc3c2NC(=O)CC3c2cccc(OC)c2)cc1 (stereo not given)	> 100 µM	17.4 µM	> 100 µM	> 100 µM	> 100 µM	> 100 µM	> 100 µM		5.28 µM	2.18 µM	1.35 µM	10.7 µM	0.613 µM	17.5 µM	2.13 µM	3.22 µM	0.55 µM	> 100 µM	0.702 µM	
CCCCCCCN=C(N)c1ccc(N2CCN(c3ccc(C(N)=NCCCCCCC)cc3)CC2)cc1	> 100 µM		> 22.4 µM	> 100 µM	> 100 µM	0.163 µM	7.34 µM		0.0351 µM	2.71 µM		2.08 µM	7.29 µM	2.13 µM	0.0231 µM	0.376 µM	0.208 µM			
Oc1ccc2ccccc2c1N=Nc1ccc(Br)cc1	> 100 µM	> 100 µM	> 100 µM	> 100 µM	> 100 µM		> 100 µM	> 100 µM	> 100 µM											
COC12OCCN(C)C1=CC(=O)C1=NNC(C)C12 (stereo not given)	> 100 µM	> 100 µM	> 100 µM	> 100 µM	> 100 µM	> 100 µM	> 100 µM		> 100 µM											
S=c1[nH]c2c(Cl)c(Cl)c(Cl)c(Cl)c2[nH]1	78 µM	13 µM		54.3 µM		23.6 µM	57.4 µM		3.71 µM									40.5 µM		
O=C1CCC(=O)c2c1c(O)c1ccncc1c2O	43.1 µM	26.4 µM	34.8 µM	28.9 µM	45.3 µM	29.6 µM	25.3 µM	34.7 µM	24.5 µM											
C[C@H]1CN[C@@H]2[C@@H](C)[C@H]3[C@@H](C[C@H]4[C@@H]5CC[C@H]6C[C@@H](N)CC[C@]6(C)[C@H]5CC[C@]34C)O[C@@]2(O)C1	7.77 µM	4.08 µM	4.23 µM	4.73 µM	5.77 µM	6.23 µM	4.78 µM		5.91 µM									26.3 µM		
[N-]=[N+]=N/C1=C/CCCCC(=O)C1	> 100 µM	> 100 µM	> 100 µM	> 100 µM		> 100 µM	> 100 µM		> 100 µM											
Clc1nc(Cl)nc(Nc2cccc3ccccc23)n1	> 100 µM	> 100 µM	> 100 µM	> 100 µM	> 100 µM	> 100 µM	> 100 µM	48.3 µM		40.3 µM	> 100 µM	> 100 µM	> 100 µM	> 100 µM	> 100 µM	> 100 µM	36.3 µM	> 100 µM		18.3 µM
CN(C)CCSc1cc(-c2ccccc2)c2ccccc2n1		> 100 µM	17.9 µM	7.01 µM	33.4 µM		58.5 µM	> 100 µM	24.1 µM									27.8 µM		
Cc1ccc(S(=O)OCc2c(C)c(C)c(COS(=O)c3ccc(C)cc3)c(C)c2C)cc1 (stereo not given)	> 100 µM	> 100 µM	> 100 µM	> 100 µM	> 100 µM	> 100 µM	> 100 µM	> 100 µM	> 100 µM											
COc1cccc2c1C(=O)c1c(O)c3c(c(O)c1C2=O)C[C@@](O)(/C(C)=N/NC(=O)c1ccc(Cl)cc1)C[C@@H]3OC1CC(N)C(O)C(C)O1 (stereo not given in full)	3.31 µM				0.897 µM		3.02 µM			0.0545 µM				0.187 µM		0.268 µM				
O=C(Nc1ccc(Cl)c(C(F)(F)F)c1)c1ccc(NC2=C(Cl)C(=O)N(Cc3ccccc3)C2=O)cc1	> 100 µM	6.46 µM	17.6 µM	41.6 µM	53 µM		> 100 µM	4.33 µM	5.54 µM	2.89 µM	2.58 µM	4.4 µM	19.6 µM	23.1 µM		3.66 µM			2.18 µM	1.65 µM
CCOC(=O)c1ccc(N=Nc2cc(C(=O)OCC)ccc2O)cc1	> 100 µM	> 100 µM	> 100 µM	> 100 µM			> 100 µM		> 100 µM											
CSc1ccccc1C#C/C=C\C#Cc1ccccc1N	> 100 µM	> 100 µM	50.4 µM	20.1 µM	52 µM		> 100 µM		32.4 µM	8.04 µM	3.97 µM	24.7 µM	5.85 µM	13.4 µM		35.8 µM			0.527 µM	
Cn1c2ccccc2c2ncc3[nH]c4ccccc4c3c21	67.4 µM	41.3 µM	31.7 µM	35.2 µM	51.8 µM	> 100 µM	52.7 µM		33.2 µM											
COc1ccc(/C(=C\C=C(C#N)C#N)Sc2nc3ccccc3s2)cc1				9.08 µM	40.9 µM	16.9 µM	33.9 µM		> 50 µM				2.52 µM	11.2 µM	9.02 µM	13.7 µM	2.26 µM	17.9 µM	14.6 µM	
CS/C(=C(\S)c1ccccc1)c1ccccc1		> 100 µM	> 100 µM	> 100 µM	> 100 µM	> 100 µM	> 100 µM	> 100 µM	> 100 µM											
O=C1c2cc3c(cc2-c2c1c1cc(Cl)c(Cl)cc1c(=O)n2C[C@H](O)CO)OCO3		10.5 µM	8.62 µM		0.0248 µM	3.29 µM	1.16 µM	3.78 µM	0.122 µM		< 0.01 µM	0.0429 µM		< 0.01 µM	0.0451 µM	< 0.01 µM			< 0.01 µM	< 0.01 µM
